# Test results reported in PubChem BioAssay (NCI).
# Where “and” joins values, the source holds several entries; their conditions need not be identical. Equal values may be shown once.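 1) Cells in 96-well plates. 2) Compound, 48 h, 5 concentrations. 3) Linear interpolation between surrounding doses. 4) Unreached endpoint = highest concentration. GI50: concentration for 50% inhibition of growth. TGI: total growth inhibition.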
# What was measured:
# Test in all cases: NCI tumour cell line growth inhibition, 48 h
# [1] = system: A498 renal
# [2] = system: CCRF-CEM leukemia
# [3] = system: SF-268 CNS
# [4] = system: SK-OV-3 ovarian
# [5] = system: SN12C renal
# [6] = system: SNB-19 CNS
# [7] = system: SR leukemia
# [8] = system: T-47D breast
# [9] = system: U251 CNS
# [10] = system: UACC-62 melanoma
Compound,GI50 [1],TGI [1],GI50 [2],TGI [2],GI50 [3],TGI [3],TGI [4],GI50 [5],TGI [5],GI50 [6],TGI [6],GI50 [7],TGI [7],GI50 [8],TGI [8],GI50 [9],TGI [9],GI50 [10],TGI [10],GI50 [4]
COc1ccc2c(c1)/C(=C\c1c(-c3ccccc3)nc3sccn13)C(=O)N2,0.63 µM,5.11 µM,5.5 µM,> 100 µM,2.11 µM,13.4 µM,> 65.8 µM,9.57 µM,> 26.6 µM,> 21.5 µM,> 58.3 µM,24 µM,> 100 µM,8.33 µM,30.9 µM,5.88 µM,27.9 µM,3.52 µM,15.6 µM,
C[C@]1(c2nc3c(C(N)=O)cccc3[nH]2)CCCN1,> 100 µM,> 100 µM,> 100 µM,> 100 µM,> 100 µM,> 100 µM,> 100 µM,79.9 µM and > 85.5 µM,> 100 µM,> 100 µM,> 100 µM,19.5 µM and 10.4 µM,> 90 µM and 51.4 µM,68.4 µM and > 100 µM,> 100 µM,75.9 µM and > 100 µM,> 100 µM,> 100 µM,> 100 µM,> 100 µM
O=C(Nc1ccc(Cl)cc1)c1cc(NCc2cc(O)ccc2O)ccc1O,17.1 µM,47.1 µM,0.605 µM,6.79 µM,3.04 µM,14 µM,60.7 µM,7.47 µM,22.6 µM,8.33 µM,21.2 µM,3.84 µM,> 100 µM,2.05 µM,5.24 µM,3.96 µM,13.4 µM,2.06 µM,5.3 µM,25 µM
O=C(O)c1nn(-c2ccc(Cl)cc2)c2c1C(=O)c1ccccc1C2=O,,> 100 µM,,> 100 µM,,> 100 µM,> 100 µM,,> 100 µM,,> 100 µM,,78.7 µM,,> 100 µM,,> 100 µM,,> 100 µM,
NC(CCl)=NCC12CC3CC(CC(C3)C1)C2,1.37 µM,13.4 µM,0.348 µM,3.27 µM,1.9 µM,12.1 µM,16.7 µM,1.56 µM,15.7 µM,10 µM,23 µM,0.116 µM,0.706 µM,1.2 µM,20.1 µM,1.38 µM,12.1 µM,0.918 µM,4.08 µM,4.1 µM
O=C(N/N=C/c1ccc([N+](=O)[O-])cc1)c1ccccc1Nc1ccnc(C(F)(F)F)c1,10.5 µM,43.7 µM,> 100 µM,> 100 µM,10.5 µM,82.8 µM,81.4 µM,26.3 µM,> 100 µM,23.9 µM,> 100 µM,1.5 µM,20.2 µM,21.6 µM,82.4 µM,16.6 µM,> 100 µM,13.3 µM,38.3 µM,28 µM
Cn1cc(-c2ncnc3ccc(-c4cnc(Cl)c(NS(C)(=O)=O)c4)cc23)c2ccccc21,0.207 µM,1.4 µM,0.687 µM,> 62.7 µM,1.09 µM,> 100 µM,2.32 µM,0.856 µM,> 100 µM,1.67 µM,23.4 µM,1.24 µM,> 35.9 µM,0.0944 µM,0.691 µM,1.65 µM,23.4 µM,0.181 µM,1.95 µM,0.263 µM
COc1cc(/C=C/C(=O)c2ccccc2O)ccc1OCCCOc1cc2c(cc1OC)C(=O)N1CCC[C@H]1C=N2,0.0479 µM,0.319 µM,0.027 µM,0.094 µM,0.0247 µM,0.064 µM,3.82 µM,0.0521 µM,1.3 µM,0.193 µM,,0.0184 µM,0.0523 µM,0.152 µM,,0.0226 µM,0.0511 µM,0.0388 µM,0.102 µM,0.316 µM
COc1ccc(-c2oc3ncnc(N)c3c2-c2ccc(NC(=O)Nc3cc(C(F)(F)F)ccc3F)cc2)cc1,0.329 µM,2.55 µM,0.934 µM,11.8 µM,1.03 µM,3.76 µM,5.09 µM,0.828 µM,3.75 µM,1.61 µM,12.2 µM,0.833 µM,8.61 µM,1.94 µM,10.1 µM,0.997 µM,3.83 µM,0.956 µM,4.23 µM,0.894 µM
O=c1cc(-c2ccccc2)oc2c(O)c(O)ccc12,21.5 µM,> 100 µM,3.45 µM,> 100 µM,6.4 µM,> 100 µM,> 100 µM,12.2 µM,> 100 µM,16.8 µM,> 100 µM,3.35 µM,> 100 µM,16.9 µM,> 100 µM,7.72 µM,> 100 µM,13.8 µM,66.4 µM,23.8 µM
N#Cc1c(N)c(C(=O)c2ccc3c(c2)OCCO3)n2c1CCCC2,1.79 µM,8.03 µM,3.15 µM,> 100 µM,7.46 µM,> 100 µM,> 38.3 µM,6.13 µM,> 100 µM,6.3 µM,> 100 µM,0.869 µM,> 100 µM,4.38 µM,> 100 µM,4.07 µM,> 100 µM,5.99 µM,> 100 µM,5.47 µM
O=C1/C(=C/c2ccc(Cl)cc2)N=C(c2ccccc2)N1c1cc(C(F)(F)F)ccc1Cl,36.7 µM,> 100 µM,,,28.8 µM,> 100 µM,> 100 µM,30.5 µM,> 100 µM,36.4 µM,> 100 µM,28.7 µM,68 µM,22.4 µM,> 100 µM,22.5 µM,> 100 µM,14 µM,44.9 µM,35.7 µM
N#Cc1ccc2[nH]cc(Cc3c[nH]c4ccc(C#N)cc34)c2c1,10.1 µM,22 µM,12.8 µM,39.4 µM,11.5 µM,31.7 µM,,17 µM,> 50 µM,17.2 µM,> 50 µM,7.99 µM,36.7 µM,10.6 µM,32.8 µM,15.7 µM,48.5 µM,8.42 µM,20.1 µM,
COC(=O)[C@@H](C)C[C@H](Cc1ccccc1)NC(=O)c1csc([C@@H](C[C@H](C(C)C)N(C)C(=O)[C@@H](NC(=O)[C@H]2CCCCN2C)c2ccc(F)cc2)OC(C)=O)n1,0.0216 µM and 0.127 µM,> 100 µM,,25 µM and > 100 µM,,25 µM and > 100 µM,25 µM and > 100 µM,,22.2 µM and 19.5 µM,0.0163 µM and 0.0441 µM,> 100 µM,0.00065 µM and 0.0025 µM,6.84 µM and 17.6 µM,0.00826 µM,,,25 µM and > 100 µM,0.00331 µM and 0.0025 µM,25 µM,
COc1ccc2c(c1)C(=O)/C(=C/c1ccc(O)cc1)O2,23.2 µM,49.3 µM,1.63 µM,3.54 µM,14.8 µM,41.1 µM,> 100 µM,14.1 µM,32 µM,43 µM,> 100 µM,1.79 µM,4.71 µM,7.27 µM,37.6 µM,14.1 µM,27.2 µM,14.7 µM,30.5 µM,52.7 µM
Cc1ccc(NC(=O)CCc2nnc3s/c(=C\C=C\c4ccccc4)c(=O)n23)cc1,,> 100 µM,,74.3 µM,,> 100 µM,> 100 µM,,> 100 µM,,> 100 µM,,65.6 µM,,> 31.6 µM,,> 100 µM,,> 100 µM,
Oc1cccc2cccnc12,,27.7 µM and 56.4 µM and > 100 µM,,,4.04 µM and 32.7 µM and 3.29 µM,> 100 µM,> 100 µM,5.56 µM and 29.8 µM and 4.23 µM,> 100 µM,23.6 µM and 96.4 µM and 38.9 µM,> 100 µM,,23.7 µM and 3.71 µM,,> 100 µM,3.32 µM and 23.8 µM and 5.14 µM,> 100 µM,,26.8 µM and > 100 µM,42.2 µM and 46.1 µM and > 100 µM
COc1cc(/C=C2\C[C@H]3[C@@H]4CC=C5C[C@@H](O)CC[C@]5(C)[C@H]4CC[C@]3(C)[C@H]2O)ccc1OCCN1CCCCC1,14.3 µM,31.3 µM,0.37 µM,1.88 µM,1.74 µM,12.5 µM,,0.813 µM,1.75 µM,2.17 µM,> 50 µM,1.11 µM,> 50 µM,2.05 µM,16.2 µM,1.13 µM,3.32 µM,1.73 µM,3.45 µM,
N[C@@H](Cc1c[nH]c2ccccc12)C(=O)NC1CCN(Cc2c[nH]c3ccc(Cl)cc23)CC1,,,2.15 µM,4.95 µM,7.74 µM,22 µM,28.1 µM,15.3 µM,30.4 µM,10.4 µM,23.9 µM,2.33 µM,6.46 µM,4.65 µM,20 µM,10.6 µM,22.7 µM,5.56 µM,18.3 µM,14.6 µM
CC(=O)CCc1ccc(Oc2c3ccccc3nc3occc23)cc1,15.8 µM,29.2 µM,24.1 µM,94.7 µM,18.9 µM,38.1 µM,41.4 µM,26.7 µM,96.5 µM,19.5 µM,48 µM,19.7 µM,57.3 µM,2.3 µM,22.6 µM,13.5 µM,33.8 µM,,,17.8 µM
